According to patent publication US5609872A, “Peptides comprising a protective epitope from blood stages of plasmodium falciparum” (priority 1990, dated 1997):
Ends that are not written are not given here.

Test system: mAb 33G2
Experiment: PEPSCAN ELISA of rod-bound peptides with mAb 33G2
Assay type: binding, human
Details: culture supernatant with mAb 33G2 (approx. 10 μg/ml) diluted 1:100; N-acetylated peptides on rods
Description: The detailed epitope specificity on the single amino acid level for the mAb 33G2 was performed using the multiple peptide synthesis technique (PEPSCAN) developed by Geysen et al. (J. Immunol. Methods 102, 259-274, 1987). Peptides were synthesized on polyethylene rods on which polymers of polyacrylic acid had been formed by […]. Polyethylene rods and Pmoc L-amino acids performed as active esthers (Cambridge Research Biochemicals, UK) were used for synthesis according to instructions of the manufacturer. The N-terminals of all peptides were acetylated. As a basis for the mAb 33G2 epitope analysis, the sequence of amino acid residues 1-19 [SEQ ID NO.: 15] (ESVTEEIAEEDKSVIEEAV) of Ag332 (Mattei, D., Berzins, K., Wahlgren, M., Udomsangpetch, R., Perlmann, P., Griesser, H. W., Scherf, A., M uller-Hill, B., Bonnefoy, S., Guillotte, M., Langsley, G., Pereira da Silva, L. and Mercereau-Puijalon, O. (1989) Cross-reactive antigenic determinants present on different Plasmodium falciparum blood-stage antigens. Parasite Immunol. 11, 15-30) was used, containing sequences of the peptides with the highest reactivity with the mAb (Udomsangpetch, R., Carlsson, J., W ahlin, B., Holmquist, G., Ozaki, L. S., Scherf, A., Mattei, D., Mercereau-Puijalon, O., Uni, S., Aikawa, M., Berzins, K. and Perlmann, P. (1989) Reactivity of the human monoclonal antibody 33G2 with repeated sequences of three distinct Plasmodium falciparum antigens. J. Immunol. 142, 3620-3626). All possible overlapping heptapeptides, hexpeptides, pentapeptides and tetrapeptides covering the mentioned sequence were synthesized and their reactivity with mAb 33G2 was analysed by ELISA as described by Geysen et al. (J. Immunol. Methods 102, 259-274, 1987). Culture supernatant containing mAb 33G2 (approx. 10 μg/ml), was diluted 1:100. Peptide containing rods were washed in phosphate-buffered saline with 0.05% Tween 20 between all steps in ELISA. Bound antibodies were detected with a rabbit antihuman IgM-alkaline phosphatase conjugate (Sigma, St. Louis, Mo.) using p-nitrophenyl phosphate, disodium salt (Sigma) as substrate.

| Substance | reactivity with mAb 33G2 in ELISA (absorbance at 405 nm), in words |
| --- | --- |
| VVEEV: pentapeptide epitope analog of residue 3-7 of Ag332; printed as SEQ ID NO.:19 (LVEEV) | recognized |
| ile-thr-glu-glu-ile (ITEEI) | recognized |
| ile-ala-asp-glu-ile (IADEI) | recognized |
| IADEV: pentapeptide epitope analog of residue 3-7 of Ag332 | recognized |
| YLDEV: pentapeptide epitope analog of residue 3-7 of Ag332 | did not react |
| thr-glu-glu-ile-ala-glu (TEEIAE) [hexapeptide, amino acids 4-9 of Ag332] | recognized |
| LVEEV: pentapeptide epitope analog of residue 3-7 of Ag332 | recognized |
| TEEIAEE [thr-glu-glu-ile-ala-glu-glu, heptapeptide, amino acids 4-10 of Ag332] | showed reactivity |
| val-ala-glu-glu-ile (VAEEI) | recognized |
| ESVTEEI [glu-ser-val-thr-glu-glu-ile, heptapeptide, amino acids 1-7 of Ag332] | showed reactivity |
| val-thr-glu-glu-ile-ala (VTEEIA) [hexapeptide, amino acids 3-8 of Ag332] | recognized |
| VTEEIAE [val-thr-glu-glu-ile-ala-glu, heptapeptide, amino acids 3-9 of Ag332] | showed reactivity |
| ser-val-thr-glu-glu-ile (SVTEEI) [hexapeptide, amino acids 2-7 of Ag332] | recognized |
| SVTEEIA [ser-val-thr-glu-glu-ile-ala, heptapeptide, amino acids 2-8 of Ag332] | showed reactivity |

Test system: binding of mAb 33G2 to Pf11/RESA
Experiment: not given
Details: peptide mixed with a fixed concentration of the mAb; up to 200 μg/ml tested; cited from earlier work

| Substance | peptide concentration giving complete inhibition of mAb 33G2 immunofluorescence [µg/mL] |
| --- | --- |
| (EEVVEEVVP)2: synthetic peptide corresponding to repeated sequence in antigen Pf11.1 (also: dimer of the repeat (EEVVEEVVP)2) | 100 |
| Y (SVTEEIAEEDK)2: peptide corresponding to a dimer of amino acids 2-12 in antigen Ag332 (YSVTEEIAEEDK; also: dimer of the peptide) | 0.2 |
